These results are taken from ChEMBL document CHEMBL3091451, “Function-regulating pharmacophores in a sulfonamide class of glucocorticoid receptor agonists” (Bioorg Med Chem Lett, 2013).

Data set [1] concerns the target T1, Glucocorticoid receptor (Homo sapiens, UniProt P04150).
T1 sequence (P04150 whole entry): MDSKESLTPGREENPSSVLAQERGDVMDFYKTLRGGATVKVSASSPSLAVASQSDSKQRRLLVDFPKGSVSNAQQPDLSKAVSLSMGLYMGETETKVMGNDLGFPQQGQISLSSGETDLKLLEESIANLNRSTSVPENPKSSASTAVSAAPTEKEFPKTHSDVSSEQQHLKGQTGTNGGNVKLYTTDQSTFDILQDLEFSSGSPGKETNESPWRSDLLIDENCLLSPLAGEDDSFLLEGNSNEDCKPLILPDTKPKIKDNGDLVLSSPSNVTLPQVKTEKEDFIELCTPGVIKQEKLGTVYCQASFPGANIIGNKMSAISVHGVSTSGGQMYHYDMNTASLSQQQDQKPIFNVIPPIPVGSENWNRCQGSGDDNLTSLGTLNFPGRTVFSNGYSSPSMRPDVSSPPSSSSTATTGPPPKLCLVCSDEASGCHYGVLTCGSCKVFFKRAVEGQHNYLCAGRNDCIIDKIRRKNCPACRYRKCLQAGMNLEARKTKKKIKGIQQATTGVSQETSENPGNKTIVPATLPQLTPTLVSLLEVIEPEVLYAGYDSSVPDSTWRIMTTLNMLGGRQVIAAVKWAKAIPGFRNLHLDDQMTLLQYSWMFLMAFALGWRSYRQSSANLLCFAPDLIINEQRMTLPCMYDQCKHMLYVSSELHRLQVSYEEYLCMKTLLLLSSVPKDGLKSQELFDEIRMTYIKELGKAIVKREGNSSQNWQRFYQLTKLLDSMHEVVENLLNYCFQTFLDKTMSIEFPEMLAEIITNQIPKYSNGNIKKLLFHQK
As to the kind of experiment: Displacement of TAMRA-labeled dexamethasone from glucocorticoid receptor (unknown origin) by fluorescence polarization competitive binding assay. For orientation: In fluorescence polarisation assays a small probe gives low polarisation when free and higher when bound to something large.

Another data set deals with Cytochrome P450 3A4 (Homo sapiens, UniProt P08684). Kind of data set: Inhibition of CYP3A4 (unknown origin) using 7-benzyloxy-4-trifluoromethylcoumarin as substrate. In kind it is ADME.
The target in another data set is T2, Progesterone receptor (Homo sapiens, UniProt P06401).
T2 sequence (P06401 whole entry): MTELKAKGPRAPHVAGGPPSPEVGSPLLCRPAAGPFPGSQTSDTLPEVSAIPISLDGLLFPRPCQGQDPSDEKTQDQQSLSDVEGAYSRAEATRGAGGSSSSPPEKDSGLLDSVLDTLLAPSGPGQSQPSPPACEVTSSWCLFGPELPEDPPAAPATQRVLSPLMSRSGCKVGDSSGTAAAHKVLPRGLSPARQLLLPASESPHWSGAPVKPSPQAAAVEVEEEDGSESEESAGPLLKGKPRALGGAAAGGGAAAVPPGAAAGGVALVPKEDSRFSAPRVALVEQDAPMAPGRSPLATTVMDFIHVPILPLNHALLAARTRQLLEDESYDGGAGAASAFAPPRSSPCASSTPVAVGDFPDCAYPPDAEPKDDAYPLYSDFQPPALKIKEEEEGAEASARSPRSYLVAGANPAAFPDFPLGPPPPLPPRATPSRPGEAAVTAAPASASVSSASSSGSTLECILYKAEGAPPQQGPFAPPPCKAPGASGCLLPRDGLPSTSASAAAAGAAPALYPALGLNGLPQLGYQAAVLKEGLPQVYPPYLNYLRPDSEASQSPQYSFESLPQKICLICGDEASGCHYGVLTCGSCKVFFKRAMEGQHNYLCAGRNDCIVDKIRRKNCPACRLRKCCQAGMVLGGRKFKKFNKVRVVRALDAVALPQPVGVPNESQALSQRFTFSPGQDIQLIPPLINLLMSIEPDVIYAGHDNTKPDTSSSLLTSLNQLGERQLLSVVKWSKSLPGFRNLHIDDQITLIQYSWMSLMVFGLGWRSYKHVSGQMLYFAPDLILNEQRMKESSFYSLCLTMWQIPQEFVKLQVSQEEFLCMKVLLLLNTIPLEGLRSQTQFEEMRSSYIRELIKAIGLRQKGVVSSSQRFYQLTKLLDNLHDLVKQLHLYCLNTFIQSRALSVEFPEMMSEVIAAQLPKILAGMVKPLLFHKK
Kind of data set: Displacement of TAMRA-labeled mifepristone from progesterone receptor (unknown origin) by fluorescence polarization competitive binding assay.

Data set [2] is filed under the species Mus musculus. Kind of data set: Antiarthritic activity in collagen antibody-induced arthritis mouse model. In kind it is functional.
The species named for a further data set is Homo sapiens. Kind of data set: Selectivity ratio of IC50 for mineralocorticoid receptor (unknown origin) to IC50 for glucocorticoid receptor (unknown origin).
For data set [3], the target named is T3, Mineralocorticoid receptor (Homo sapiens, UniProt P08235).
T3 sequence (P08235 whole entry): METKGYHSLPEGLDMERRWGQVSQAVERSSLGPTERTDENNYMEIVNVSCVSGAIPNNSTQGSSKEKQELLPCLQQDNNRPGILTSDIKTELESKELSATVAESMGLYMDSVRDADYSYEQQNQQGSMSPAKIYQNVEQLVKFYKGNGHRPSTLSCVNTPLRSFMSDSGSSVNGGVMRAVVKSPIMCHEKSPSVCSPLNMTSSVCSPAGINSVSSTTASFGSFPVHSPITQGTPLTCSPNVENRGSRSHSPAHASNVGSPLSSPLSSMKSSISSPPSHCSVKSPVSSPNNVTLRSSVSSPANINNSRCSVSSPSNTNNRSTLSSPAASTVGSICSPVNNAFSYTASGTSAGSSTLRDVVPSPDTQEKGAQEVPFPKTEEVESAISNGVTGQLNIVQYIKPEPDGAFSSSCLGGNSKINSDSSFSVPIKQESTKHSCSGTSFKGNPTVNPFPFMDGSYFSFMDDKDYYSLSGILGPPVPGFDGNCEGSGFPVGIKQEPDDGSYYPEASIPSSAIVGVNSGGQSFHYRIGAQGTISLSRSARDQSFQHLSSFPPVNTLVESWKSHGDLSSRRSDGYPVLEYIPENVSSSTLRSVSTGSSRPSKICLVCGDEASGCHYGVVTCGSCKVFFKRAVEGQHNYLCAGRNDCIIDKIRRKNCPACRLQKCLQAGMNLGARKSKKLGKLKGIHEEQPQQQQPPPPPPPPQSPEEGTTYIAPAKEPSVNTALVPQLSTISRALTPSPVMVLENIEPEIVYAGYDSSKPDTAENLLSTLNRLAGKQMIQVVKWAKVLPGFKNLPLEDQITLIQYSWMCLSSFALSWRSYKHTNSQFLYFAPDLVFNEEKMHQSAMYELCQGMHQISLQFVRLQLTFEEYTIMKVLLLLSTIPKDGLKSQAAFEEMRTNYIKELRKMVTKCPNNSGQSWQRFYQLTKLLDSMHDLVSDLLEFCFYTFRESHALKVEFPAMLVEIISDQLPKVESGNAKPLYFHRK
As to the kind of experiment: Binding affinity to mineralocorticoid receptor (unknown origin) by fluorescence polarization competitive binding assay.

Data set [4] can be described thus: Half life in human liver microsomes. In kind it is ADME. (Liver microsomes are vesicles of endoplasmic reticulum, rich in cytochrome P450 enzymes.)
The species named for data set [5] is Mus musculus. Kind of data set: Antiinflammatory activity in mouse assessed as inhibition of LPS-stimulated TNFalpha production. In kind it is functional.
In data set [6] the target is T1, Glucocorticoid receptor. Kind of data set: Agonist activity at glucocorticoid receptor in HFF assessed as inhibition of IL-1-induced IL-6 production after 24 hrs.

Chain of Cytochrome P450 3A4 (P08684 whole entry): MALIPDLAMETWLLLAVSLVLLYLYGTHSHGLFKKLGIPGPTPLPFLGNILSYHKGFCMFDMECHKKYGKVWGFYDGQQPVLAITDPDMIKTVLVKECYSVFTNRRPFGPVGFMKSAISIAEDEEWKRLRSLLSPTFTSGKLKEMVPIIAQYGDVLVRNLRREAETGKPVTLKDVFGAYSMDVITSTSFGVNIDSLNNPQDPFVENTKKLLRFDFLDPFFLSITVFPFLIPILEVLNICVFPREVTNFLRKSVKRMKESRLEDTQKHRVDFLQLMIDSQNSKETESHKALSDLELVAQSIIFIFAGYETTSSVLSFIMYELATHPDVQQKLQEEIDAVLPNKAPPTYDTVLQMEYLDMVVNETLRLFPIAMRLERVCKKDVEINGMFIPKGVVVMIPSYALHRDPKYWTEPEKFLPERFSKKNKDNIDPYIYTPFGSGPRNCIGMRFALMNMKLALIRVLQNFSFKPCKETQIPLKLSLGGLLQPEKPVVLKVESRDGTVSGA

As usually defined, the IC50 is the concentration at which inhibition is half-maximal. The term ED50 denotes the dose that gives a 50% effect, or the effect in half of the subjects. The half-life is how long it takes for the measured level to halve. Regarding `CC[C@@H](Cn1cc(C#N)c2ccccc21)NS(=O)(=O)c1c(N)cc(Cl)cc1Cl`, the IC50 at Glucocorticoid receptor [1] came to 1 nM; against Cytochrome P450 3A4 it was 5800 nM; on Progesterone receptor, 1.5 µM; in [3] it was 330 nM; on Glucocorticoid receptor [6], 7 nM. Further, the ED50 in the data set listed under Mus musculus [2] is 100 mg/kg; in the data set filed under Mus musculus [5], 10 mg/kg. Also, in the data set listed under Homo sapiens, the Ratio IC50 amounted to 330. The compound further gave a half-life in [4] of 3 min.
Turning to `CC[C@@H](Cn1ccc2ccccc21)NS(=O)(=O)c1c(N)cc(Cl)cc1Cl`, the IC50 was 2 nM on Glucocorticoid receptor [1]; 570 nM at Cytochrome P450 3A4; over 10 µM on Progesterone receptor; 510 nM in data set [3]; over 2000 nM at Glucocorticoid receptor [6]. Further, the half-life in [4] worked out at 3 min.
Consider `CC[C@@H](Cn1cc(C)c2ccccc21)NS(=O)(=O)c1c(N)cc(Cl)cc1Cl`, for which the IC50 was 2 nM at Glucocorticoid receptor [1]; 940 nM against Cytochrome P450 3A4; 5 µM at Progesterone receptor; 260 nM in data set [3]; 10 nM on Glucocorticoid receptor [6]. This compound yielded a half-life in [4] of 2 min.
